Where “and” joins values, the source holds several entries; their conditions need not be identical. Equal entries are not always repeated. Toxic doses and inconclusive results are not listed. How the source made its calls: active means survival T/C of 150% or more; inactive means T/C below 125% in these data.
Tested on: BDF1 mice, B16 melanoma ip, median survival T/C
Assay: NCI In Vivo Anticancer Drug Screen. Data for tumor model B16 Melanoma (intraperitoneal) in B6D2F1 (BDF1) mice
Details: endpoint: median survival time, higher = longer survival
In short: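 Transplantable tumor model; survival or tumor size measured; reported as T/C, treated over vehicle control.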

[1] = dose: 6.25 mg/kg/injection, schedule: Q01DX009 (ip), vehicle: Klucel (hydroxypropylcellulose) (HPC)
[2] = dose: 12.5 mg/kg/injection, schedule: Q01DX009 (ip), vehicle: Klucel (hydroxypropylcellulose) (HPC)
[3] = dose: 25.0 mg/kg/injection, schedule: Q01DX009 (ip), vehicle: Klucel (hydroxypropylcellulose) (HPC)
[4] = dose: 50.0 mg/kg/injection, schedule: Q01DX009 (ip), vehicle: Klucel (hydroxypropylcellulose) (HPC)
[5] = dose: 100.0 mg/kg/injection, schedule: Q01DX009 (ip), vehicle: Klucel (hydroxypropylcellulose) (HPC)
[6] = dose: 100.0 mg/kg/injection, schedule: Q01DX009 (ip), vehicle: saline
[7] = dose: 50.0 mg/kg/injection, schedule: Q01DX009 (ip), vehicle: saline with Tween-80
[8] = dose: 100.0 mg/kg/injection, schedule: Q01DX009 (ip), vehicle: saline with Tween-80
[9] = dose: 200.0 mg/kg/injection, schedule: Q01DX009 (ip), vehicle: saline with Tween-80
[10] = dose: 200.0 mg/kg/injection, schedule: Q01DX009 (ip), vehicle: Klucel (hydroxypropylcellulose) (HPC)
[11] = dose: 25.0 mg/kg/injection, schedule: Q01DX009 (ip), vehicle: saline
[12] = dose: 25.0 mg/kg/injection, schedule: Q01DX009 (ip), vehicle: saline with Tween-80

Measured: T/C

C/C=C(\C)c1cc(=O)c2c(C)cc3c(c2o1)C(=O)c1c(O)c(C2CC(C)(N(C)C)C(OC(C)=O)C(C)O2)cc(C2CC(N(C)C)C(O)C(C)O2)c1C3=O (stereo not drawn)
inactive: dose: 0.16 mg/kg/injection, schedule: Q01DX009 (ip), vehicle: saline 103 % of control | dose: 0.31 mg/kg/injection, schedule: Q01DX009 (ip), vehicle: saline 103 % of control | dose: 0.62 mg/kg/injection, schedule: Q01DX009 (ip), vehicle: saline 102 % of control | dose: 1.25 mg/kg/injection, schedule: Q01DX009 (ip), vehicle: saline 91 % of control and 110 % of control | dose: 2.5 mg/kg/injection, schedule: Q01DX009 (ip), vehicle: saline 124 % of control

N#[N+]c1c(O)cc(S(=O)(=O)O)c2ccccc12
inactive: dose: 100.0 mg/kg/injection, schedule: Q04DX003 (ip), vehicle: saline 95 % of control | dose: 200.0 mg/kg/injection, schedule: Q04DX003 (ip), vehicle: saline 93 % of control | dose: 400.0 mg/kg/injection, schedule: Q04DX003 (ip), vehicle: saline 90 % of control

C[N+](C)(C)c1cc2c(nn1)Nc1ccccc1S2
inactive: dose: 3.12 mg/kg/injection, schedule: Q01DX009 (ip), vehicle: Klucel (hydroxypropylcellulose) (HPC) 101 % of control | [1] 98 % of control | [2] 101 % of control | [3] 101 % of control | [4] 102 % of control | [5] 89 % of control

C=CCOCC(O)CN(CC(C)C)CC(C)C (stereo not drawn)
inactive: [1] 98 % of control | [2] 104 % of control | [3] 100 % of control

COc1cc2c(c(OC)c1OC)-c1ccc(SC)c(=O)cc1[C@@H](NC1OC(CO)C(O)C(O)C1O)CC2 (stereo partly drawn)
inactive: [6] 120 % of control

O=S(=O)([O-])NC1CCCCC1.O=S(=O)([O-])NC1CCCCC1.[Hg+2].[Hg+2].[Hg+2].[O-2].[O-2]
inactive: dose: 0.12 mg/kg/injection, schedule: Q01DX009 (ip), vehicle: saline 98 % of control | dose: 0.25 mg/kg/injection, schedule: Q01DX009 (ip), vehicle: saline 105 % of control | dose: 0.5 mg/kg/injection, schedule: Q01DX009 (ip), vehicle: saline 98 % of control | dose: 1.0 mg/kg/injection, schedule: Q01DX009 (ip), vehicle: saline 90 % of control

CCCCNC(=O)Nc1ccc(C(=O)OCCCC)cc1
inactive: [7] 96 % of control | [8] 95 % of control | [9] 93 % of control

Clc1ccc(C=Nc2ccc3c(c2)Cc2ccccc2-3)cc1
inactive: [5] 93 % of control | [10] 93 % of control | dose: 400.0 mg/kg/injection, schedule: Q01DX009 (ip), vehicle: Klucel (hydroxypropylcellulose) (HPC) 96 % of control

CC1(C)OCC(C2CCC3(C)C4=CCC5C(C)(C)C(O)CCC5(C)C4CCC23C)CC(O)C1O (stereo not drawn)
inactive: dose: 5.0 mg/kg/injection, schedule: Q01DX009 (ip), vehicle: Klucel (hydroxypropylcellulose) (HPC) 118 % of control | dose: 10.0 mg/kg/injection, schedule: Q01DX009 (ip), vehicle: Klucel (hydroxypropylcellulose) (HPC) 102 % of control

O=[N+]([O-])c1ccc2c(N=Nc3ccc4ccccc4c3O)c(O)cc(S(=O)(=O)O)c2c1
inactive: dose: 37.5 mg/kg/injection, schedule: Q01DX009 (ip), vehicle: Klucel (hydroxypropylcellulose) (HPC) 94 % of control | dose: 75.0 mg/kg/injection, schedule: Q01DX009 (ip), vehicle: Klucel (hydroxypropylcellulose) (HPC) 98 % of control

CCC(CC)N=C(N)N
inactive: [11] 101 % of control | dose: 50.0 mg/kg/injection, schedule: Q01DX009 (ip), vehicle: saline 98 % of control | [6] 112 % of control

[Cl][Pt+2][Cl].[NH-]C1CCCCC1.[NH-]C1CCCCC1
inactive: [1] 105 % of control | [2] 110 % of control | [3] 92 % of control and 117 % of control | [4] 97 % of control

COc1ccccc1C(C#N)N1CCCN(C(C#N)c2ccccc2OC)C1c1cc(Cl)cc(Cl)c1O (stereo not drawn)
inactive: dose: 6.25 mg/kg/injection, schedule: Q01DX009 (ip), vehicle: saline with Tween-80 104 % of control | dose: 12.5 mg/kg/injection, schedule: Q01DX009 (ip), vehicle: saline with Tween-80 101 % of control | [12] 103 % of control | [7] 91 % of control and 124 % of control

CC1CCCCC1NC(=O)NCCOC(=O)OCCNC(=O)NC1CCCCC1C (stereo not drawn)
inactive: [8] 97 % of control | [9] 95 % of control | dose: 400.0 mg/kg/injection, schedule: Q01DX009 (ip), vehicle: saline with Tween-80 97 % of control

CN1CCN(CCCN2c3ccccc3Sc3ccc(C(F)(F)F)cc32)CC1
inactive: dose: 0.58 mg/kg/injection, schedule: Q01DX009 (ip), vehicle: saline 117 % of control | dose: 0.78 mg/kg/injection, schedule: Q01DX009 (ip), vehicle: saline 102 % of control | dose: 1.17 mg/kg/injection, schedule: Q01DX009 (ip), vehicle: saline 112 % of control | dose: 1.56 mg/kg/injection, schedule: Q01DX009 (ip), vehicle: saline 102 % of control | dose: 2.34 mg/kg/injection, schedule: Q01DX009 (ip), vehicle: saline 112 % of control | dose: 3.12 mg/kg/injection, schedule: Q01DX009 (ip), vehicle: saline 112 % of control and 110 % of control | dose: 4.68 mg/kg/injection, schedule: Q01DX009 (ip), vehicle: saline 97 % of control | dose: 6.25 mg/kg/injection, schedule: Q01DX009 (ip), vehicle: saline 102 % of control and 95 % of control | dose: 9.37 mg/kg/injection, schedule: Q01DX009 (ip), vehicle: saline 115 % of control | dose: 12.5 mg/kg/injection, schedule: Q01DX009 (ip), vehicle: saline 105 % of control and 102 % of control | [11] 102 % of control

NOCc1cccc(CON)c1
inactive: dose: 12.5 mg/kg/injection, schedule: Q04DX003 (ip), vehicle: saline 123 % of control | dose: 25.0 mg/kg/injection, schedule: Q04DX003 (ip), vehicle: saline 118 % of control | dose: 50.0 mg/kg/injection, schedule: Q04DX003 (ip), vehicle: saline 115 % of control

CCc1ccccc1N1CCN(C(=O)c2cc(OC)c(OC)c(OC)c2)CC1
inactive: [2] 88 % of control | [3] 94 % of control | [4] 94 % of control

O=C(O)c1ccc2c(c1)C(=O)c1ccccc1S2(=O)=O
inactive: [5] 92 % of control | [10] 93 % of control

O=C1N(Br)C(=O)C(c2ccc(Cl)cc2)(c2ccc(Cl)cc2)N1Br
inactive: [1] 103 % of control | [2] 98 % of control | [3] 100 % of control | [4] 88 % of control

CCCc1c(C)[nH]c2ccc(C)cc12
inactive: [12] 101 % of control | [7] 105 % of control | [8] 87 % of control

Cc1c(Cl)cccc1NS(=O)(=O)c1ccc(Cl)cc1
inactive: [3] 106 % of control | [4] 97 % of control | [5] 99 % of control

CC(=O)Nc1cccc([N+](=O)[O-])c1
inactive: [7] 109 % of control | [8] 97 % of control | [9] 97 % of control

From PubChem BioAssay AID192 (DTP/NCI, 2004)
